# Measured values taken from patent publication US20240132431A1, “METHOD FOR ALKYLATING ACIDIC FUNCTIONAL GROUP” (Chugai Seiyaku Kabushiki Kaisha, priority 2021, published 2024).
# Target: T1, Bcl-2 protein (Recombinant Human Bcl-2 Protein) (Homo sapiens, UniProt P10415)
# T1 construct: purchased Novus NBP2-34889
# Assay: Binding evaluation of mixture library compounds to Bcl-2 using AS-MS (affinity selection mass spectrometry)
# Details: for ASMS ratio (%) n = 1: replicate n = 1; for ASMS ratio (%) n = 1 / ASMS ratio (%) n = 2: ASMS Ratio(%)=(A−C)/B×100; for ASMS ratio (%) n = 2: replicate n = 2
# Outline: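 Affinity selection MS: Bcl-2 20 μM + 1200-cpd mixture, […]/cpd, Tris pH 7.4 buffer w/ Tween-20, DTT; 1 h 23° C dark; P-2 spin SEC; MeCN/MeOH extraction; RP LC/MS. ASMS Ratio(%) = (A−C)/B×100.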
# [1] = AS-MS, mixture of 1200 compounds, Bcl-2
# [2] = AS-MS on the mixture of 1200 library compounds
# T1 sequence (P10415 whole entry): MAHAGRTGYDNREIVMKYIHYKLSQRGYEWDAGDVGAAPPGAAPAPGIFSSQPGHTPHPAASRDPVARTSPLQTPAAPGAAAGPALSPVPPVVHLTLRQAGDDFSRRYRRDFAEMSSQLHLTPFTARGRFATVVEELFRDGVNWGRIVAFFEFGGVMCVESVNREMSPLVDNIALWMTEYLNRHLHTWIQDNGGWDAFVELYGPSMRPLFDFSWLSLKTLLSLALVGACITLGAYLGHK
compound,measurement,setting,value
"CCOc1cncc(-c2cc(CN3CCN(c4ccc(C(=O)N(CC)CC)cc4)CC3)cc(OC(F)(F)F)c2)c1 [B4J064-01, 4-[4-[[3-(5-Ethoxypyridin-3-yl)-5-(trifluoromethoxy)phenyl]methyl]piperazin-1-yl]-N,N-diethylbenzamide]",ASMS ratio (%) n = 1,"AS-MS, mixture library, Bcl-2",1.6%
same,ASMS ratio (%) n = 2,"AS-MS, mixture library, Bcl-2",0.0%
"CCOc1cccc(-c2ccc(CN3CCN(c4ccc(C(=O)NCC(F)(F)F)nn4)CC3)c3ccccc23)c1 [B1K091-01, 6-[4-[[4-(3-Ethoxyphenyl)naphthalen-1-yl]methyl]piperazin-1-yl]-N-(2,2,2-trifluoroethyl)pyridazine-3-carboxamide]",ASMS ratio (%) n = 1,[1],3.6%
same,ASMS ratio (%) n = 2,[1],−4.2%
"CCOc1cccc(-c2csc(C(=O)N3CCN(c4ccc(C(=O)NS(C)(=O)=O)nn4)CC3)c2)c1 [B2I001-01, 6-[4-[4-(3-Ethoxyphenyl)thiophene-2-carbonyl]piperazin-1-yl]-N-methylsulfonylpyridazine-3-carboxamide]",ASMS ratio (%) n = 1,"AS-MS, mixture library, Bcl-2",0.0%
"CCOc1cncc(-c2ccc(C(C)N3CCN(c4ccc(C(=O)NCC56CC7CC(CC(C7)C5)C6)cc4)CC3)c(F)c2)c1 (stereo not drawn) [B1A100-01, N-(1-Adamantylmethyl)-4-[4-[1-[4-(5-ethoxypyridin-3-yl)-2-fluorophenyl]ethyl]piperazin-1-yl]benzamide]",ASMS ratio (%) n = 1,[1],6.4%
same,ASMS ratio (%) n = 2,[1],2.3%
"CCOc1cncc(C#Cc2cncc(C(=O)N3CCN(c4ccc(C(=O)N(C)CC56CC7CC(CC(C7)C5)C6)nn4)CC3)c2)c1 [B3A010-01, N-(1-Adamantylmethyl)-6-[4-[5-[2-(5-ethoxypyridin-3-yl)ethynyl]pyridine-3-carbonyl]piperazin-1-yl]-N-methylpyridazine-3-carboxamide]",ASMS ratio (%) n = 1,[2],0.0%
same,ASMS ratio (%) n = 2,[2],0.0%
6-[4-[3-[2-(5-Ethoxypyridin-3-yl)phenyl]propanoyl]piperazin-1-yl]-N-propylpyridazine-3-carboxamide [B1M077-01],ASMS ratio (%) n = 1,[1],−0.7%
same,ASMS ratio (%) n = 2,[1],3.1%
"CCOc1cncc(-c2csc(C(=O)N3CCN(c4ccc(C(=O)NS(=O)(=O)c5ccc(NCCSc6ccccc6)c([N+](=O)[O-])c5)nn4)CC3)c2)c1 [B2Q002-01, 6-[4-[4-(5-Ethoxypyridin-3-yl)thiophene-2-carbonyl]piperazin-1-yl]-N-[3-nitro-4-(2-phenylsulfanylethylamino)phenyl]sulfonylpyridazine-3-carboxamide]",ASMS ratio (%) n = 1,"AS-MS, mixture library, Bcl-2",24.5%
same,ASMS ratio (%) n = 2,"AS-MS, mixture library, Bcl-2",17.2%
"CCOc1cccc(-c2ccc(C(=O)N3CCN(c4ccc(C(=O)N(CC)CC)nn4)CC3)c3ccccc23)c1 [B4J013-01, 6-[4-[4-(3-Ethoxyphenyl)naphthalene-1-carbonyl]piperazin-1-yl]-N,N-diethylpyridazine-3-carboxamide]",ASMS ratio (%) n = 1,[2],2.0%
same,ASMS ratio (%) n = 2,[2],3.7%
"CCOc1cncc(-c2ccc(CN3CCN(c4ccc(C(=O)N(C)CC56CC7CC(CC(C7)C5)C6)nn4)CC3)c3ccccc23)c1 [B3A092-01, N-(1-Adamantylmethyl)-6-[4-[[4-(5-ethoxypyridin-3-yl)naphthalen-1-yl]methyl]piperazin-1-yl]-N-methylpyridazine-3-carboxamide]",ASMS ratio (%) n = 1,[2],1.1%
same,ASMS ratio (%) n = 2,[2],−1.9%
"CCOc1cccc(-c2ccc(C(C)N3CCN(c4ccc(C(=O)NS(C)(=O)=O)cc4)CC3)c(F)c2)c1 (stereo not drawn) [B2I099-01, 4-[4-[1-[4-(3-Ethoxyphenyl)-2-fluorophenyl]ethyl]piperazin-1-yl]-N-methylsulfonylbenzamide]",ASMS ratio (%),n = 2,0.0%
"CCOc1cncc(-c2cc(C(=O)N3CCN(c4ccc(C(=O)NS(=O)(=O)c5ccc(NCCSc6ccccc6)c(C(F)(F)F)c5)nn4)CC3)cc(C(C)(C)C)c2)c1 [B2R016-01, 6-[4-[3-tert-Butyl-5-(5-ethoxypyridin-3-yl)benzoyl]piperazin-1-yl]-N-[4-(2-phenylsulfanylethylamino)-3-(trifluoromethyl)phenyl]sulfonylpyridazine-3-carboxamide]",ASMS ratio (%),n = 1,9.1%
same,ASMS ratio (%),n = 2,2.7%
"CCOc1cccc(C#Cc2ccccc2C(=O)N2CCN(c3ccc(C(=O)NCC45CC6CC(CC(C6)C4)C5)cc3)CC2)c1 [B1A029-01, N-(1-Adamantylmethyl)-4-[4-[2-[2-(3-ethoxyphenyl)ethynyl]benzoyl]piperazin-1-yl]benzamide]",ASMS ratio (%) n = 1,[1],−22.3%
same,ASMS ratio (%) n = 2,[1],−13.0%
"CCOc1cccc(C#Cc2cncc(C(=O)N3CCN(c4ccc(C(=O)NS(=O)(=O)c5ccc(NCCSc6ccccc6)c([N+](=O)[O-])c5)nn4)CC3)c2)c1 [B2Q009-01, 6-[4-[5-[2-(3-Ethoxyphenyl)ethynyl]pyridine-3-carbonyl]piperazin-1-yl]-N-[3-nitro-4-(2-phenylsulfanylethylamino)phenyl]sulfonylpyridazine-3-carboxamide]",ASMS ratio (%) n = 1,"AS-MS, mixture library, Bcl-2",16.5%
same,ASMS ratio (%) n = 2,"AS-MS, mixture library, Bcl-2",0.5%
"CCOc1cccc(-c2cc(CN3CCN(c4ccc(C(=O)NS(=O)(=O)C(C)(C)C)cc4)CC3)cc(C(F)(F)F)c2)c1 [B2L061-01, N-tert-Butylsulfonyl-4-[4-[[3-(3-ethoxyphenyl)-5-(trifluoromethyl)phenyl]methyl]piperazin-1-yl]benzamide]",ASMS ratio (%),n = 1,4.6%
same,ASMS ratio (%),n = 2,−11.1%
"CCOc1cncc(-c2ccccc2CN2CCN(c3ccc(C(=O)N(C)CC45CC6CC(CC(C6)C4)C5)nn3)CC2)c1 [B3A072-01, N-(1-Adamantylmethyl)-6-[4-[[2-(5-ethoxypyridin-3-yl)phenyl]methyl]piperazin-1-yl]-N-methylpyridazine-3-carboxamide]",ASMS ratio (%) n = 1,[2],11.6%
same,ASMS ratio (%) n = 2,[2],3.1%
"CCOc1cncc(-c2cc(CN3CCN(c4ccc(C(=O)NCC(F)(F)F)cc4)CC3)cc(OC(C)C)c2)c1 [B1K058-01, 4-[4-[[3-(5-Ethoxypyridin-3-yl)-5-propan-2-yloxyphenyl]methyl]piperazin-1-yl]-N-(2,2,2-trifluoroethyl)benzamide]",ASMS ratio (%) n = 1,[1],1.3%
same,ASMS ratio (%) n = 2,[1],0.1%
"CCOc1cncc(-c2cc(CN3CCN(c4ccc(C(=O)NS(=O)(=O)C(C)(C)C)nn4)CC3)cc(C(F)(F)F)c2)c1 [B2L088-01, N-tert-Butylsulfonyl-6-[4-[[3-(5-ethoxypyridin-3-yl)-5-(trifluoromethyl)phenyl]methyl]piperazin-1-yl]pyridazine-3-carboxamide]",ASMS ratio (%),n = 1,0.0%
same,ASMS ratio (%),n = 2,2.8%
"CCOc1cncc(-c2ccc(CN3CCN(c4ccc(C(=O)N(CC)CC)cc4)CC3)cc2C)c1 [B4J048-01, 4-[4-[[4-(5-Ethoxypyridin-3-yl)-3-methylphenyl]methyl]piperazin-1-yl]-N,N-diethylbenzamide]",ASMS ratio (%) n = 1,[2],1.2%
same,ASMS ratio (%) n = 2,[2],−2.1%
"CCOc1cncc(-c2ccc(CN3CCN(c4ccc(C(=O)NCC(F)(F)F)cc4)CC3)c3ccccc23)c1 [B1K066-01, 4-[4-[[4-(5-Ethoxypyridin-3-yl)naphthalen-1-yl]methyl]piperazin-1-yl]-N-(2,2,2-trifluoroethyl)benzamide]",ASMS ratio (%) n = 1,[1],1.8%
same,ASMS ratio (%) n = 2,[1],−0.7%
"CCOc1cncc(C#Cc2cncc(C(=O)N3CCN(c4ccc(C(=O)Nc5ccc(OC)cc5)cc4)CC3)c2)c1 [B1O032-01, 4-[4-[5-[2-(5-Ethoxypyridin-3-yl)ethynyl]pyridine-3-carbonyl]piperazin-1-yl]-N-(4-methoxyphenyl)benzamide]",ASMS ratio (%) n = 1,[2],4.5%
same,ASMS ratio (%) n = 2,[2],0.9%
"CCOc1cncc(-c2ccc(CN3CCN(c4ccc(C(=O)NCC56CC7CC(CC(C7)C5)C6)nn4)CC3)c3ccccc23)c1 [B1A092-01, N-(1-Adamantylmethyl)-6-[4-[[4-(5-ethoxypyridin-3-yl)naphthalen-1-yl]methyl]piperazin-1-yl]pyridazine-3-carboxamide]",ASMS ratio (%) n = 1,[1],2.6%
same,ASMS ratio (%) n = 2,[1],−2.4%
"CCOc1cncc(-c2ccccc2CCC(=O)N2CCN(c3ccc(C(=O)NCC(F)(F)F)cc3)CC2)c1 [B1K034-01, 4-[4-[3-[2-(5-Ethoxypyridin-3-yl)phenyl]propanoyl]piperazin-1-yl]-N-(2,2,2-trifluoroethyl)benzamide]",ASMS ratio (%) n = 1,[1],−0.3%
same,ASMS ratio (%) n = 2,[1],0.0%
"CCOc1cncc(-c2cc(CN3CCN(c4ccc(C(=O)NS(C)(=O)=O)nn4)CC3)cc(C(F)(F)F)c2)c1 [B2I088-01, 6-[4-[[3-(5-Ethoxypyridin-3-yl)-5-(trifluoromethyl)phenyl]methyl]piperazin-1-yl]-N-methylsulfonylpyridazine-3-carboxamide]",ASMS ratio (%),n = 1,0.0%
same,ASMS ratio (%),n = 2,0.0%
"CCOc1cccc(C#Cc2cc(C(=O)N3CCN(c4ccc(C(=O)Nc5ccc(OC)cc5)cc4)CC3)cc(C(F)(F)F)c2)c1 [B1O041-01, 4-[4-[3-[2-(3-Ethoxyphenyl)ethynyl]-5-(trifluoromethyl)benzoyl]piperazin-1-yl]-N-(4-methoxyphenyl)benzamide]",ASMS ratio (%) n = 1,[2],10.4%
same,ASMS ratio (%) n = 2,[2],−2.8%
"CCOc1cncc(-c2ccc(C(=O)N3CCN(c4ccc(C(=O)NS(=O)(=O)CCC(F)(F)F)cc4)CC3)cc2F)c1 [B2N028-01, 4-[4-[4-(5-Ethoxypyridin-3-yl)-3-fluorobenzoyl]piperazin-1-yl]-N-(3,3,3-trifluoropropylsulfonyl)benzamide]",ASMS ratio (%),n = 1,−0.7%
same,ASMS ratio (%),n = 2,−0.9%
